This note sets out measurements from ChEMBL document CHEMBL3351958, “Structure-activity relationships of sugar-based peptidomimetics as modulators of amyloid β-peptide early oligomerization and fibrillization” (Eur J Med Chem, 2014).

Molecules are shown by their SMILES. Calls of active or inactive are those of the source. The rule behind the calls is not given here. Numbered stars: 1 amine (or outer) side, 2 acyl side, 3 side chain; on linkers, the order of the positions; unused ones are H or OH. Square brackets hold non-standard residues; d marks the D form. Peptide text beside a SMILES is read from it. * marks the point of attachment. X1 = O=C(CCOC[C@H]1O[C@@H](OCCCN[*:1])[C@H](O)[C@@H](O)[C@@H]1O)[*:2]; X2 = O=C(CCOC[C@H]1O[C@@H](OCCN[*:1])[C@H](O)[C@@H](O)[C@@H]1O)[*:2]; X4 = O=C(CCOC[C@H]1O[C@H](OCCCN[*:1])[C@H](O)[C@@H](O)[C@@H]1O)[*:2]; X3 = O=C(CCOC[C@H]1O[C@H](OCCN[*:1])[C@H](O)[C@@H](O)[C@@H]1O)[*:2]; Boc = CC(C)(C)OC(=O)*

For assay [1], the target named is Amyloid-beta precursor protein (Homo sapiens) (UniProt P05067). The experiment in a line: Inhibition of amyloid beta (1 to 42) (unknown origin) oligomerization assessed as fold change in half-life of aggregation extension/reduction at 1:10 Abeta:compound ratio by thioflavin T assay based fluorescence microscopy.
For assay [2] the target is unchanged. Description: Inhibition of amyloid beta (1 to 42) (unknown origin) oligomerization assessed as reduction in intensity of experimental fluorescence plateau at 1:10 Abeta:compound ratio by thioflavin T assay based fluorescence microscopy. Also noted: scale not given: the % may be the effect or the level left.
The target is the same in assay [3]. The experiment in a line: Inhibition of amyloid beta (1 to 42) (unknown origin) oligomerization assessed as fold change in half-life of aggregation extension/reduction at 1:1 Abeta:compound ratio by thioflavin T assay based fluorescence microscopy.
Assay [4] has the same target. Description: Inhibition of amyloid beta (1 to 42) (unknown origin) oligomerization assessed as reduction in intensity of experimental fluorescence plateau at 1:1 Abeta:compound ratio by thioflavin T assay based fluorescence microscopy.
For assay [5] the target is unchanged. The experiment in a line: Inhibition of amyloid beta (1 to 42) (unknown origin) oligomerization assessed as increase in intensity of experimental fluorescence plateau at 1:10 Abeta:compound ratio by thioflavin T assay based fluorescence microscopy. Also noted: scale not given: the % may be the effect or the level left.
The target is the same in assay [6]. The experiment in a line: Inhibition of amyloid beta (1 to 42) (unknown origin) fibril formation at 100 uM after 4 to 24 hrs by transmission electron microscopy.
Assay [7] has the same target. The experiment in a line: Inhibition of amyloid beta (1 to 42) (unknown origin) oligomer formation at 1:1 Abeta:compound ratio after 4 to 6 hrs by capillary electrophoresis.
Assay [8] shares this target. Description: Inhibition of amyloid beta (1 to 42) (unknown origin) oligomer formation at 1:2 Abeta:compound ratio after 4 to 6 hrs by capillary electrophoresis.
The target is the same in assay [9]. Description: Inhibition of amyloid beta (1 to 42) (unknown origin) oligomer formation at 1:10 Abeta:compound ratio after 4 to 6 hrs by capillary electrophoresis.
For assay [10] the target is unchanged. The experiment in a line: Inhibition of amyloid beta (1 to 42) (unknown origin) oligomerization assessed as fold change in half-life of aggregation extension/reduction at 1:5 Abeta:compound ratio by thioflavin T assay based fluorescence microscopy.
For assay [11] the target is unchanged. The experiment in a line: Inhibition of amyloid beta (1 to 42) (unknown origin) oligomerization assessed as reduction in intensity of experimental fluorescence plateau at 1:5 Abeta:compound ratio by thioflavin T assay based fluorescence microscopy. Also noted: scale not given: the % may be the effect or the level left.
Assay [12] has the same target. Description: Inhibition of amyloid beta (1 to 42) (unknown origin) oligomer formation at 100 uM after 4 to 6 hrs by capillary electrophoresis.
For assay [13] the target is unchanged. Description: Inhibition of amyloid beta (1 to 42) (unknown origin) oligomer formation assessed as monomer stabilization at 100 uM after 4 to 6 hrs by capillary electrophoresis.

Chain of Amyloid-beta precursor protein (Homo sapiens) (P05067 whole entry): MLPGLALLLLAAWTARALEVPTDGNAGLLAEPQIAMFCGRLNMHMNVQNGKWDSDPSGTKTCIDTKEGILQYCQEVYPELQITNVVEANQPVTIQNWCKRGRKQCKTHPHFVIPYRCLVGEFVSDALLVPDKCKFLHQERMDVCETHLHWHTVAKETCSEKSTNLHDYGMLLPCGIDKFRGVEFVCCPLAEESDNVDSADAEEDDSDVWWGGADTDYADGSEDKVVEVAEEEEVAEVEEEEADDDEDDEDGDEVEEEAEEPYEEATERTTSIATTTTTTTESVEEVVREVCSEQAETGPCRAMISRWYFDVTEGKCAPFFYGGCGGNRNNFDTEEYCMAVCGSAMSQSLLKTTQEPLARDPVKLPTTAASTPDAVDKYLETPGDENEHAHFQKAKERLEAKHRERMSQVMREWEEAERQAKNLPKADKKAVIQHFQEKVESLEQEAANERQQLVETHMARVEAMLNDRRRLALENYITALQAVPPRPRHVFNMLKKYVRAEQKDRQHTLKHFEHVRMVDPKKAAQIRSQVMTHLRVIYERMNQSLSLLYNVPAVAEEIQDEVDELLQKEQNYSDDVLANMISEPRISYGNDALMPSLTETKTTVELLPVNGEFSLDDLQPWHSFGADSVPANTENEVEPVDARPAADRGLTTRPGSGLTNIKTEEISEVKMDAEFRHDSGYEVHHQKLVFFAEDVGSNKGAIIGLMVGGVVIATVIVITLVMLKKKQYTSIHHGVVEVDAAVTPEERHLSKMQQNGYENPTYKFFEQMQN

For the compound `COC(=O)[C@H](CC(C)C)NC(=O)[C@@H](NC(=O)CCOC[C@H]1OC(O)[C@H](O)[C@@H](O)[C@@H]1O)C(C)C` (stereo partly drawn), the “fold change (FC)” value in assay [1] is “inactive”. In assay [2], the outcome was inactive. The “fold change in aggregation half-life” value in assay [3] is “inactive”. In addition, the inhibition result in [4] was “inactive”.
Consider `COC(=O)[C@H](CC(C)C)NC(=O)[C@@H](NC(=O)CCOC[C@H]1OC(O)[C@H](OCc2ccccc2)[C@@H](OCc2ccccc2)[C@@H]1OCc1ccccc1)C(C)C` (stereo partly drawn), for which the fold change (FC) in assay [1] was found to be 0.8. The Activity in assay [5] amounted to 14%. The “fold change in aggregation half-life” value in assay [3] was “inactive”. Further, the inhibition entry in [4] is “inactive”.
Consider `COC(=O)[C@H](CC(C)C)NC(=O)[C@@H](NC(=O)CCOC[C@H]1O[C@@H](OCCCNC(=O)[C@@H](NC(=O)[C@H](C)NC(=O)OC(C)(C)C)C(C)C)[C@H](OC(C)=O)[C@@H](OC(C)=O)[C@@H]1OC(C)=O)C(C)C`, for which the “fold change (FC)” value in assay [1] is “inactive”. In addition, the result in [2] was inactive. In addition, in assay [3], the “fold change in aggregation half-life” value was “inactive”. Besides, the inhibition entry in assay [4] was “inactive”.
With `COC(=O)[C@H](CC(C)C)NC(=O)[C@@H](NC(=O)CCOC[C@H]1O[C@@H](OCCCNC(=O)[C@@H](NC(=O)[C@H](C)NC(=O)OC(C)(C)C)C(C)C)[C@H](OCc2ccccc2)[C@@H](OCc2ccccc2)[C@@H]1OCc1ccccc1)C(C)C`, the fold change (FC) in [1] is 0.7. The Activity in [5] amounted to 27%. Also, the “fold change in aggregation half-life” value in [3] was “inactive”. Besides, the inhibition entry in assay [4] and in assay [7] was “inactive” in each case. The inhibition entry in assay [6] and in [8] was “Active” throughout.
In the case of `COC(=O)[C@H](CC(C)C)NC(=O)[C@@H](NC(=O)CCOC[C@H]1O[C@@H](OCCNC(=O)[C@@H](NC(=O)[C@H](C)NC(=O)OC(C)(C)C)C(C)C)[C@H](OCc2ccccc2)[C@@H](OCc2ccccc2)[C@@H]1OCc1ccccc1)C(C)C`, in [1], the fold change (FC) turned out to be 0.8. Moreover, the Activity in assay [5] came out at 38%. The “fold change in aggregation half-life” value in assay [3] was “inactive”. The inhibition entry in [4] is “inactive”.
Turning to `COC(=O)[C@H](CC(C)C)NC(=O)[C@@H](NC(=O)CCOC[C@H]1O[C@H](OCCNC(=O)[C@@H](NC(=O)[C@H](C)NC(=O)OC(C)(C)C)C(C)C)[C@H](OC(C)=O)[C@@H](OC(C)=O)[C@@H]1OC(C)=O)C(C)C`, in [1], the “fold change (FC)” value was “inactive”. Further, the result in [2] was inactive. Moreover, the “fold change in aggregation half-life” value in [3] was “inactive”. In addition, the inhibition entry in assay [4] was “inactive”.
As for `OC[C@H]1OC(O)[C@H](O)[C@@H](O)[C@@H]1O` (stereo partly drawn), in assay [1], the “fold change (FC)” value was “inactive”. In addition, the outcome in [2] was inactive. Further, in assay [3], the “fold change in aggregation half-life” value was “inactive”. Further, the inhibition entry in assay [4] was “inactive”.
Take `COC(=O)[C@H](CC(C)C)NC(=O)[C@@H](NC(=O)CCOC[C@H]1O[C@@H](OCCCNC(=O)[C@@H](NC(=O)[C@H](C)NC(=O)OC(C)(C)C)C(C)C)[C@H](O)[C@@H](O)[C@@H]1O)C(C)C` (Boc-AV[X1]VL-OMe): the fold change (FC) in assay [1] was 1.9. In addition, the Activity in [2] is 37%. In addition, the “fold change in aggregation half-life” value in [3] is “inactive”. Also, the inhibition entry in assay [4], in assay [6], in assay [9] and in assay [7] was “inactive” in each case.
As for `COC(=O)[C@H](CC(C)C)NC(=O)[C@@H](NC(=O)CCOC[C@H]1O[C@@H](OCCNC(=O)[C@@H](NC(=O)[C@H](C)NC(=O)OC(C)(C)C)C(C)C)[C@H](O)[C@@H](O)[C@@H]1O)C(C)C` (Boc-AV[X2]VL-OMe), in assay [1], the fold change (FC) came to 1.8. Moreover, the Activity in assay [2] was determined as 29%. Besides, the “fold change in aggregation half-life” value in assay [3] was “inactive”. In [4], the inhibition entry is “inactive”.
Consider `COC(=O)[C@H](CC(C)C)NC(=O)[C@@H](NC(=O)CCOC[C@H]1O[C@H](OCCNC(=O)[C@@H](NC(=O)[C@H](C)NC(=O)OC(C)(C)C)C(C)C)[C@H](O)[C@@H](O)[C@@H]1O)C(C)C` (Boc-AV[X3]VL-OMe), for which the “fold change (FC)” value in assay [1] is “inactive”. In assay [2], the outcome was inactive. Moreover, in assay [3], the “fold change in aggregation half-life” value is “inactive”. Further, in [4], the inhibition entry is “inactive”.
As for `COC(=O)[C@H](CC(C)C)NC(=O)[C@@H](NC(=O)CCOC[C@H]1O[C@H](OCCCNC(=O)[C@@H](NC(=O)[C@H](C)NC(=O)OC(C)(C)C)C(C)C)[C@H](O)[C@@H](O)[C@@H]1O)C(C)C` (Boc-AV[X4]VL-OMe), the “fold change (FC)” value in [1] is “inactive”. Moreover, in assay [2], the result was inactive. Moreover, the “fold change in aggregation half-life” value in [3] was “inactive”. In addition, in assay [4], the inhibition entry is “inactive”.
As to `COC(=O)[C@H](CC(C)C)NC(=O)[C@@H](NC(=O)OC(C)(C)C)C(C)C` (Boc-Val-Leu-OMe), in [1], the “fold change (FC)” value was “inactive”. The outcome in [2] was inactive. Further, the “fold change in aggregation half-life” value in assay [3] is “inactive”. In addition, the inhibition result in assay [4] was “inactive”.
On to `COC(=O)[C@H](CC(C)C)NC(=O)[C@@H](NC(=O)CCOC[C@H]1O[C@@H](OCCCNC(=O)[C@@H](NC(=O)[C@H](C)N)C(C)C)[C@H](O)[C@@H](O)[C@@H]1O)C(C)C` (H-AV[X1]VL-OMe), for which the results for the fold change (FC) in assay [1] and in assay [10] were 2.8 and 2.1, respectively. Also, the Activity in [2] was 56%; in assay [11] it was 40%. Also, the “fold change in aggregation half-life” value in assay [3] was “inactive”. In addition, the inhibition entry in [4] was “inactive”. For the same compound, the inhibition entry in [6], in assay [12], in assay [13], in assay [9] and in [7] was “Active” in each case.
Turning to `COC(=O)[C@H](CC(C)C)NC(=O)[C@@H](NC(=O)CCOC[C@H]1O[C@@H](OCCNC(=O)[C@@H](NC(=O)[C@H](C)N)C(C)C)[C@H](O)[C@@H](O)[C@@H]1O)C(C)C` (H-AV[X2]VL-OMe), the “fold change (FC)” value in [1] is “inactive”. Moreover, in assay [2], the result was inactive. In assay [3], the “fold change in aggregation half-life” value is “inactive”. In addition, the inhibition entry in [4] is “inactive”.
`COC(=O)[C@H](CC(C)C)NC(=O)[C@@H](N)C(C)C` (H-Val-Leu-OMe): the “fold change (FC)” value in assay [1] is “inactive”. Further, the outcome in assay [2] was inactive. Also, the “fold change in aggregation half-life” value in assay [3] was “inactive”. Also, in assay [4], the inhibition entry was “inactive”.
